Test results reported in PubChem BioAssay (NCI).
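1) Cells in 96-well plates. 2) Compound, 48 h, 5 concentrations. 3) Linear interpolation between surrounding doses. 4) Unreached endpoint = highest concentration. GI50 is the concentration that inhibits growth by half. TGI denotes the concentration required for complete inhibition of growth.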

Legend:
Assay in all cases: NCI-60 cell line screen, 48 h
SR leukemia = system: SR leukemia
HL-60(TB) leukemia = system: HL-60(TB) leukemia
HCT-116 colon = system: HCT-116 colon
SNB-75 CNS = system: SNB-75 CNS
HCC-2998 colon = system: HCC-2998 colon
NCI-H522 lung = system: NCI-H522 lung
UACC-257 melanoma = system: UACC-257 melanoma
MALME-3M melanoma = system: MALME-3M melanoma
M14 melanoma = system: M14 melanoma
OVCAR-8 ovarian = system: OVCAR-8 ovarian

Row | SMILES | TGI (SR leukemia) [µM] | TGI (HL-60(TB) leukemia) [µM] | TGI (HCT-116 colon) [µM] | TGI (SNB-75 CNS) [µM] | TGI (HCC-2998 colon) [µM] | TGI (NCI-H522 lung) [µM] | TGI (UACC-257 melanoma) [µM] | TGI (MALME-3M melanoma) [µM] | TGI (M14 melanoma) [µM] | TGI (OVCAR-8 ovarian) [µM] | GI50 (SR leukemia) [µM] | GI50 (HL-60(TB) leukemia) [µM] | GI50 (OVCAR-8 ovarian) [µM] | GI50 (HCT-116 colon) [µM] | GI50 (SNB-75 CNS) [µM] | GI50 (HCC-2998 colon) [µM] | GI50 (NCI-H522 lung) [µM] | GI50 (UACC-257 melanoma) [µM] | GI50 (MALME-3M melanoma) [µM] | GI50 (M14 melanoma) [µM]
1 | CCC(C)C(=O)c1c(O)c(C/C=C(\C)CCC=C(C)C)c(O)c2c(C(O)CC)cc(=O)oc12 (configuration not stated) | 3.48 | 3.48 | 2.21 | 5.84 | 2.09 | 5.73 | 6.84 | 5.28 | 14.4 |  |  |  |  |  |  |  |  |  |  | 
2 | CC[n+]1c(/C=C/c2ccc(N(CCCl)CCCl)cc2)ccc2cc(NC(=O)/C=C/c3ccccc3)ccc21 | 0.728 | 0.389 | 1.34 | 1.05 | 1.37 | 1.17 | 1.13 | 0.81 | 3.28 | 5.7 |  |  |  |  |  |  |  |  |  | 
3 | COc1cc(C2c3cc4c(cc3[C@@H](Nc3cccc(C(C)=O)c3)C3COC(=O)[C@H]23)OCO4)cc(OC)c1O (some centres not stated) |  | 0.328 | 7.81 |  | 3.23 | 5.77 | 8.57 | 15 |  | > 28.9 |  |  |  |  |  |  |  |  |  | 
4 | COc1ccc(CC(C)N)cc1 (configuration not stated) | > 100 | > 100 | > 100 | > 100 | > 100 | > 100 | > 100 | > 100 | > 100 | > 100 |  |  |  |  |  |  |  |  |  | 
5 | CCO/N=[N+](\[O-])N(CC)CC | > 100 | > 100 | > 100 |  | > 100 | > 100 | > 100 |  | > 100 | > 100 |  |  |  |  |  |  |  |  |  | 
6 | CC1(C)N=C(N)N=C(N)N1c1cccc(OCCOc2ccc([N+](=O)[O-])cc2)c1 | > 100 | > 100 | > 100 |  |  | > 100 | > 100 | > 100 | > 100 | > 100 |  |  |  |  |  |  |  |  |  | 
7 | CC(C)C[P+](c1ccccc1)(c1ccccc1)c1ccccc1 |  | 24 | > 100 | > 100 | > 100 | > 100 | 4.19 | 83.6 | > 100 |  |  |  |  |  |  |  |  |  |  | 
8 | Cc1nc2ccccc2c(=O)[nH]1 |  | > 100 | > 100 | > 100 | > 100 | > 100 | > 100 | > 100 | > 100 | > 100 |  |  |  |  |  |  |  |  |  | 
9 | ClCc1c(Cl)c(Cl)c(Cl)c(CCl)c1Cl | 5 | 4.07 | 3.17 | 7.73 | 3.45 | 3.12 | 3.45 | 3.79 | 3.43 | 6.03 | 1.48 | 2.03 | 2.51 | 1.71 | 2.15 | 1.78 | 1.51 | 1.84 | 1.55 | 1.66
10 | CCOC(=O)/C=C(\C)c1ccc(OC)cc1 | > 100 | > 100 | > 100 | > 100 | > 100 |  | > 100 | > 100 | > 100 | > 100 |  |  |  |  |  |  |  |  |  | 
11 | COc1cc[n+](C)cc1 |  | > 100 | > 100 | > 100 | > 100 | > 100 | > 100 | > 100 |  | > 100 |  |  |  |  |  |  |  |  |  | 
12 | NCc1ccc(C(=O)O)cc1 | > 100 | > 100 | > 100 |  | > 100 | > 100 | > 100 | > 100 | > 100 | > 100 |  |  |  |  |  |  |  |  |  | 
13 | C#CC[C@@H]1C[C@]2(C)[C@H]3CC=C4[C@H]5CC(C)(C)CC[C@]5(C(=O)NCCCCN)CC[C@@]4(C)[C@]3(C)CC[C@H]2C(C)(C)[C@H]1OC(C)=O |  | 3.71 |  | 2.69 |  |  | 3.61 | 3.04 |  |  |  | 1.77 |  |  | 1.38 |  |  | 1.87 | 1.55 | 
14 | Brc1ccccc1-c1ncc(-c2ccccc2)o1 |  | > 100 | > 100 | 59.7 | 80.4 | 49.9 | > 100 | 76.3 | > 100 | > 100 |  |  |  |  |  |  |  |  |  | 
15 | O=[N+]([O-])c1cn[n+]([O-])c2ccccc12 |  | 3.59 | 2.62 |  | 3.44 |  | 26.2 | 29.4 | 13 | 11.6 |  |  |  |  |  |  |  |  |  | 
16 | CN(C)c1ccc(N=Nc2ccccn2)cc1 |  | 52.3 | > 100 | > 100 | 59.7 | > 100 | 25.7 | > 100 | > 100 | > 100 |  |  |  |  |  |  |  |  |  | 
17 | CC(C)(Br)C1(O)CCCN1C(=O)c1ccccc1 (configuration not stated) | > 100 | > 100 | > 100 | > 100 | > 100 | > 100 | > 100 | > 100 | > 100 | > 100 |  |  |  |  |  |  |  |  |  | 
18 | NCc1ccccc1C1CSCSC1 |  | > 100 | > 100 | > 100 |  | > 100 | > 100 | > 100 |  | > 100 |  |  |  |  |  |  |  |  |  | 
19 | COc1ccc(NC(=O)/C(CC2=Nc3ccc([N+](=O)[O-])cc3NC2O)=N\NC(=O)C[N+](C)(C)C)c(OC)c1 (configuration not stated) | 48.6 | > 100 | > 100 | > 100 | > 100 | > 100 | > 100 |  | > 100 | 69.8 |  |  |  |  |  |  |  |  |  | 
20 | Cn1c(-c2ccc(/C=N\N3CCN(/N=C/c4ccc(-c5c[n+]6ccccc6n5C)cc4)CC3)cc2)c[n+]2ccccc12 | > 100 | 56.9 | > 100 | > 100 |  | > 100 | > 100 |  | > 100 | > 100 |  |  |  |  |  |  |  |  |  | 
21 | C=C1C(=O)OC2C1CC(O)/C(C)=C\CCC1(C)OC21 (configuration not stated) | 61.2 | 83.8 | > 100 | > 100 | 79.9 | 33 | > 100 | 45.4 | 64.4 | > 100 |  |  |  |  |  |  |  |  |  | 
